What was measured:
Experiment in all cases: KINOMEscan competition binding
Details in all cases: compound 10.0 µM
NUAK2 (human) = NUAK2 (human) (UniProt Q9H093)
MAP3K6 (human) = MAP3K6 (human) (UniProt O95382)
STK17A (human) = STK17A (human) (UniProt Q9UEE5)
FGFR2 (human) = FGFR2 (human) (UniProt P21802)
IKBKB (human) = IKBKB (human) (UniProt O14920)
RPS6KA1 KD1 (human) = RPS6KA1 KD1 (human) (UniProt Q15418)
PRKD1 (human) = PRKD1 (human) (UniProt Q15139)
RIPK1 (human) = RIPK1 (human) (UniProt Q13546)
STK25 (human) = STK25 (human) (UniProt O00506)
STK25 (human), sequence (O00506 whole entry, looked up): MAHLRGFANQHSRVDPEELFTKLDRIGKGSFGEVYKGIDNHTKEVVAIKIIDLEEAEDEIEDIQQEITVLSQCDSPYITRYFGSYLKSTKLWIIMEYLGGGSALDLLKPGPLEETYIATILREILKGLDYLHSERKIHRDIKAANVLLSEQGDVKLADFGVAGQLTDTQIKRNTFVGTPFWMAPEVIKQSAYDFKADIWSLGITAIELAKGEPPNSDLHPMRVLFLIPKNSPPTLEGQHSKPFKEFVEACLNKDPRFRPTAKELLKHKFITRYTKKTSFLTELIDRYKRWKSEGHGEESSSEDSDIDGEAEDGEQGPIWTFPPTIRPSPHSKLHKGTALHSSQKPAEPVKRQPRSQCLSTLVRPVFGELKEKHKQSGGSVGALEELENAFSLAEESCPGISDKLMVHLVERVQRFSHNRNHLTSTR

PAK4 (human) = PAK4 (human) (UniProt O96013)
RPS6KA6 KD1 (human) = RPS6KA6 KD1 (human) (UniProt Q9UK32)
TGFBR2 (human) = TGFBR2 (human) (UniProt P37173)
DDR1 (human) = DDR1 (human) (UniProt Q08345)
RIOK1 (human) = RIOK1 (human) (UniProt Q9BRS2)
PIP4K2C (human) = PIP4K2C (human) (UniProt Q8TBX8)
MAP2K3 (human) = MAP2K3 (human) (UniProt P46734)
MARK2 (human) = MARK2 (human) (UniProt Q7KZI7)
ROS1 (human) = ROS1 (human) (UniProt P08922)
ULK1 (human) = ULK1 (human) (UniProt O75385)
PRKCQ (human) = PRKCQ (human) (UniProt Q04759)
PRKCQ (human), sequence (Q04759 whole entry, looked up): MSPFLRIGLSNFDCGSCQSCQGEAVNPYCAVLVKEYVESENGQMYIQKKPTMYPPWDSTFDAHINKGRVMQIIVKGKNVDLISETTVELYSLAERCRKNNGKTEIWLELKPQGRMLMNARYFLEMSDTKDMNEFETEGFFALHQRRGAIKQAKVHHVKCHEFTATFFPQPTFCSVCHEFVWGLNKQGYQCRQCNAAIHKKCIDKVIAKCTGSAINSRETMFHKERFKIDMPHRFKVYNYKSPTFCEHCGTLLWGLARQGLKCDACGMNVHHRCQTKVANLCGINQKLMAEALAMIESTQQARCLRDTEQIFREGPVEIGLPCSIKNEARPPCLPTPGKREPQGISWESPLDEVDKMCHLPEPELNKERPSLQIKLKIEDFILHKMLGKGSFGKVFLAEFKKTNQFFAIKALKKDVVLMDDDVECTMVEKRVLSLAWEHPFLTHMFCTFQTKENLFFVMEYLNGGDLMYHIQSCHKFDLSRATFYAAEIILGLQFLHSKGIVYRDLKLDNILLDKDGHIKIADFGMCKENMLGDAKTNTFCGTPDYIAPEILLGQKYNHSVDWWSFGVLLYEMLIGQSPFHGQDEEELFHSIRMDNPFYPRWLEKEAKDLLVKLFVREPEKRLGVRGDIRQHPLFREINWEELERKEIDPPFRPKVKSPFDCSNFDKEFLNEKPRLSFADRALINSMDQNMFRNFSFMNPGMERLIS

NTRK1 (human) = NTRK1 (human) (UniProt P04629)
CDC42BPB (human) = CDC42BPB (human) (UniProt Q9Y5S2)
PRKX (human) = PRKX (human) (UniProt P51817)
MAP3K4 (human) = MAP3K4 (human) (UniProt Q9Y6R4)
MAP3K4 (human), sequence (Q9Y6R4 whole entry, looked up): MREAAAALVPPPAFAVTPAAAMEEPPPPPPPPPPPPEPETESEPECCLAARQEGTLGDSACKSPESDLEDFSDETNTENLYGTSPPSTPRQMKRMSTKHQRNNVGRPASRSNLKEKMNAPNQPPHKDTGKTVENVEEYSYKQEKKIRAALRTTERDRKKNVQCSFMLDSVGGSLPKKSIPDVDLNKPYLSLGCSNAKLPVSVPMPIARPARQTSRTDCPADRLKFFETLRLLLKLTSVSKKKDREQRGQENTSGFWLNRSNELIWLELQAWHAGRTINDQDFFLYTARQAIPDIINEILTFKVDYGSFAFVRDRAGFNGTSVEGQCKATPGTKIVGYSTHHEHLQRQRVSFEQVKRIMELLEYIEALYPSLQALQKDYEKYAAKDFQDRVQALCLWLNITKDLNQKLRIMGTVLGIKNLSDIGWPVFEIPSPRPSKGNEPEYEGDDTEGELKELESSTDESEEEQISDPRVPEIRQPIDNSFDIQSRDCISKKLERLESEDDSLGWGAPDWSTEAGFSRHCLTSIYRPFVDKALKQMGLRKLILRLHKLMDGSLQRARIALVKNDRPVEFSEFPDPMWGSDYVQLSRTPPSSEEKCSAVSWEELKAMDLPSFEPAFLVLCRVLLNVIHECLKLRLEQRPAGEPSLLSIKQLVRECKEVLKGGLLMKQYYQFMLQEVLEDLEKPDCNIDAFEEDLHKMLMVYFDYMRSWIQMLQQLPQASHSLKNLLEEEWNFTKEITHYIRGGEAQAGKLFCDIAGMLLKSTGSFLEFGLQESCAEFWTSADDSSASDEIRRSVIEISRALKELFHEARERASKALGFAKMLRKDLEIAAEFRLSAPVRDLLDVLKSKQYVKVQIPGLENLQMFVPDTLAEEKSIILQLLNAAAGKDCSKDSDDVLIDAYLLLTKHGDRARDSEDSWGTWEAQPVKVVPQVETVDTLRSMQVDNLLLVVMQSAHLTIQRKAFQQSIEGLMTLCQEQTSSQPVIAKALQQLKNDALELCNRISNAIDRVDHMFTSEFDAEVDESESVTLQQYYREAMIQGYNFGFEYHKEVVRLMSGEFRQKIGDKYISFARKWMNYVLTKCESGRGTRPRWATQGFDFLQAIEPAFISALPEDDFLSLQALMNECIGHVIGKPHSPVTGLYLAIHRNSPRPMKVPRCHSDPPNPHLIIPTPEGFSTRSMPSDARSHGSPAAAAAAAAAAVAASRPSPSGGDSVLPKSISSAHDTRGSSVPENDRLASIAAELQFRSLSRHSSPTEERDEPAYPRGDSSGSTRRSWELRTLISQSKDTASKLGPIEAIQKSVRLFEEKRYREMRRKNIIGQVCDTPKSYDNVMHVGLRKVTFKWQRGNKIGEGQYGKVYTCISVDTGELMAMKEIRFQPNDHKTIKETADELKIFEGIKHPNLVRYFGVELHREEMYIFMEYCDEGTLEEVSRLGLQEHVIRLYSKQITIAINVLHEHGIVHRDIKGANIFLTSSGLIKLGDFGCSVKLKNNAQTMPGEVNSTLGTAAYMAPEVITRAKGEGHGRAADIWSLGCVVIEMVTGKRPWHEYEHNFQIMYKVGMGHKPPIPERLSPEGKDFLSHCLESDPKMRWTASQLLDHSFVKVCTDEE

DSTYK (human) = DSTYK (human) (UniProt Q6XUX3)
CSNK1G2 (human) = CSNK1G2 (human) (UniProt P78368)
MAPK8 (human) = MAPK8 (human) (UniProt P45983)
[1] = test system: MET (human), P08581 [M1250T]
ACVRL1 (human) = ACVRL1 (human) (UniProt P37023)
[2] = test system: FLT3 (human), P36888 [K663Q]
ROCK2 (human) = ROCK2 (human) (UniProt O75116)
MST1R (human) = MST1R (human) (UniProt Q04912)
DAPK3 (human) = DAPK3 (human) (UniProt O43293)
LTK (human) = LTK (human) (UniProt P29376)
NEK5 (human) = NEK5 (human) (UniProt Q6P3R8)
[3] = test system: KIT (human), P10721 [L576P]
PLK3 (human) = PLK3 (human) (UniProt Q9H4B4)
CHEK2 (human) = CHEK2 (human) (UniProt O96017)
IKBKE (human) = IKBKE (human) (UniProt Q14164)
IKBKE (human), sequence (Q14164 whole entry, looked up): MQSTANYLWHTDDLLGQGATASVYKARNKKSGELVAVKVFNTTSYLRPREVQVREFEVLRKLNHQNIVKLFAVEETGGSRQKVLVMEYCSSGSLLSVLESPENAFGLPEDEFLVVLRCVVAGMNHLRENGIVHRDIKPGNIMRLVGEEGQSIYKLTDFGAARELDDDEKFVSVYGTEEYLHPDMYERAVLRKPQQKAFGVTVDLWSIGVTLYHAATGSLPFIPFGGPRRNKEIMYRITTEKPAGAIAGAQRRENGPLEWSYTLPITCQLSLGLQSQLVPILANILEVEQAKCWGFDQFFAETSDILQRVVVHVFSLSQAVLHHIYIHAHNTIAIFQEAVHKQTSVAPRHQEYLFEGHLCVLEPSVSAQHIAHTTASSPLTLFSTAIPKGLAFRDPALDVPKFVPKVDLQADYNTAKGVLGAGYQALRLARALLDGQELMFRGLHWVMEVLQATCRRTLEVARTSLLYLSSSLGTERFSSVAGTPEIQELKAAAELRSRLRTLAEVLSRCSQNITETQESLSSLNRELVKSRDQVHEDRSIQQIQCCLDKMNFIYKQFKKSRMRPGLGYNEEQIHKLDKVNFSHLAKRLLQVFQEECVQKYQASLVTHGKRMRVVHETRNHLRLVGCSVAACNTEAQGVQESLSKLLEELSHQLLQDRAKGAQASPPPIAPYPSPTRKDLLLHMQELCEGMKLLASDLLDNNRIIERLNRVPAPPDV

CDK4 CCND1 (human) = CDK4 CCND1 (human) (UniProt P11802+P24385)
AKT2 (human) = AKT2 (human) (UniProt P31751)
[4] = biological target: JAK2 JH1 catalytic (human) (UniProt O60674)

FGFR2 (human), sequence (P21802 whole entry, looked up): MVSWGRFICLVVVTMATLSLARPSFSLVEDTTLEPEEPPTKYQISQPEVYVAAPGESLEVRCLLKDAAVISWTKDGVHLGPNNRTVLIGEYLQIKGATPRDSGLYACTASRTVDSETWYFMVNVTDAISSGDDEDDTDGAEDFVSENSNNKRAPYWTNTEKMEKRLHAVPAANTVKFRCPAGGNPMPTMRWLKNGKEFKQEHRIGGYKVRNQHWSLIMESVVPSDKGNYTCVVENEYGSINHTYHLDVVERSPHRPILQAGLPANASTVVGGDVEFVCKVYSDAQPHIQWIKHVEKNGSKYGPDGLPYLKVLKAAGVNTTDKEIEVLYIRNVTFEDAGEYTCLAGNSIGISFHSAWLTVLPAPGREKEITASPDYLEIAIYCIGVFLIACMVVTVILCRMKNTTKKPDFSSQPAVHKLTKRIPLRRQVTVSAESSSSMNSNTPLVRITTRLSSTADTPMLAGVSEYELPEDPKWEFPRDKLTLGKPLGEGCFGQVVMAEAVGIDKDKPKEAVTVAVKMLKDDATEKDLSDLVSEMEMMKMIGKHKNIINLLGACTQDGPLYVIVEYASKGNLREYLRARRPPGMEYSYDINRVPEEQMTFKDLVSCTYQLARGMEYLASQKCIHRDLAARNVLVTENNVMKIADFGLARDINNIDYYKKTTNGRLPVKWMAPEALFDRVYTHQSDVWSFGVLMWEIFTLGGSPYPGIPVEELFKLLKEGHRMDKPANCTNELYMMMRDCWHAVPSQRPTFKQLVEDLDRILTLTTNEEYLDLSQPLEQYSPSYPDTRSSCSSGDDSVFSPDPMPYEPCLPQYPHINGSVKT
IKBKB (human), sequence (O14920 whole entry, looked up): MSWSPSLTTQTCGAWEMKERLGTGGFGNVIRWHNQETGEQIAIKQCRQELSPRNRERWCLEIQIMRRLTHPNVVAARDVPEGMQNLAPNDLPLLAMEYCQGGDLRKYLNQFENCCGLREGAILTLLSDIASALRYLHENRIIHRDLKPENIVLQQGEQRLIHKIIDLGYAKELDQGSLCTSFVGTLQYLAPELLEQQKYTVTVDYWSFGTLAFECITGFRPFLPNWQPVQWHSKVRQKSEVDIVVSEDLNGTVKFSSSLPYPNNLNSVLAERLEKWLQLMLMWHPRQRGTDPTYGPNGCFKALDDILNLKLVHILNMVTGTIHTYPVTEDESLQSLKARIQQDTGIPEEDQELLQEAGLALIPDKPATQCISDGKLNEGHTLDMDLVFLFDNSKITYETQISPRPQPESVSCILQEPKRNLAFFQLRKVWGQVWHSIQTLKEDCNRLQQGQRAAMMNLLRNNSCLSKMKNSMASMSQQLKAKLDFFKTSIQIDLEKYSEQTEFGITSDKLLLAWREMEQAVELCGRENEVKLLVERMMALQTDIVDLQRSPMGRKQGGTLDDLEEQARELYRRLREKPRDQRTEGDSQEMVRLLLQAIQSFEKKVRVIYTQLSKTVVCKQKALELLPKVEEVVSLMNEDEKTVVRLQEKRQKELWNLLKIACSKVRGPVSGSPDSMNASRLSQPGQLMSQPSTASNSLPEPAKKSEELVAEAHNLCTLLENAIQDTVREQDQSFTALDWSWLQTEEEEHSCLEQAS

Cc1cc([C@@H](C)Nc2ccccc2C(=O)O)c2nc(N3CCOCC3)cc(=O)n2c1
kinase still bound, per cent of control (NUAK2 (human)): 100% | kinase still bound, per cent of control (MAP3K6 (human)): 94% | kinase still bound, per cent of control (STK17A (human)): 87% | kinase still bound, per cent of control (FGFR2 (human)): 100% | kinase still bound, per cent of control (IKBKB (human)): 95% | kinase still bound, per cent of control (RPS6KA1 KD1 (human)): 67% | kinase still bound, per cent of control (PRKD1 (human)): 100% | kinase still bound, per cent of control (RIPK1 (human)): 100% | kinase still bound, per cent of control (STK25 (human)): 100% | kinase still bound, per cent of control (PAK4 (human)): 95% | kinase still bound, per cent of control (RPS6KA6 KD1 (human)): 80% | kinase still bound, per cent of control (TGFBR2 (human)): 100% | kinase still bound, per cent of control (DDR1 (human)): 81% | kinase still bound, per cent of control (RIOK1 (human)): 75% | kinase still bound, per cent of control (PIP4K2C (human)): 94% | kinase still bound, per cent of control (MAP2K3 (human)): 99% | kinase still bound, per cent of control (MARK2 (human)): 100% | kinase still bound, per cent of control (ROS1 (human)): 84% | kinase still bound, per cent of control (ULK1 (human)): 73% | kinase still bound, per cent of control (PRKCQ (human)): 100% | kinase still bound, per cent of control (NTRK1 (human)): 69% | kinase still bound, per cent of control (CDC42BPB (human)): 100% | kinase still bound, per cent of control (PRKX (human)): 100% | kinase still bound, per cent of control (MAP3K4 (human)): 100% | kinase still bound, per cent of control (DSTYK (human)): 90% | kinase still bound, per cent of control (CSNK1G2 (human)): 100% | kinase still bound, per cent of control (MAPK8 (human)): 100% | kinase still bound, per cent of control [1]: 67% | kinase still bound, per cent of control (ACVRL1 (human)): 100% | kinase still bound, per cent of control [2]: 15% | kinase still bound, per cent of control (ROCK2 (human)): 89% | kinase still bound, per cent of control (MST1R (human)): 96% | kinase still bound, per cent of control (DAPK3 (human)): 78% | kinase still bound, per cent of control (LTK (human)): 61% | kinase still bound, per cent of control (NEK5 (human)): 100% | kinase still bound, per cent of control [3]: 90% | kinase still bound, per cent of control (PLK3 (human)): 94% | kinase still bound, per cent of control (CHEK2 (human)): 100% | kinase still bound, per cent of control (IKBKE (human)): 100% | kinase still bound, per cent of control (CDK4 CCND1 (human)): 38% | kinase still bound, per cent of control (AKT2 (human)): 100% | kinase still bound, per cent of control [4]: 71%

— the kinase profiling compilation of Christmann-Franck et al. (2016)
